Data on five molecules can be found in patent US20240124389A1, “COMPOUND OR SALT THEREOF, LIPID PARTICLES, AND PHARMACEUTICAL COMPOSITION” (FUJIFILM Corporation, priority 2021, published 2024).

Data set [1] deals with PTEN ASO. Kind of data set: Encapsulation rate of PTEN ASO in lipid particles. The data set is classed as physicochemical. To be noted: aminolipid 50 / DSPC 20 / cholesterol 28.5 / monostearyl PEG 1.5 mol %, lipid/nucleic acid 11.8 wt/wt. On the procedure: The first lipid, phospholipid, cholesterol, and polyethylene glycol lipid (PEG lipid) shown in Table 3 were dissolved in ethanol at the molar ratio shown in Table 3 such that the total lipid concentration was 20 mmol/L to obtain the oil phase.
As the neutral lipid, 1,2-Distearoyl-sn-glycero-3-phosphocholine (DSPC, product name: COATSOME MC-8080, NOF corporation) was used. As the cholesterol, cholesterol (product name: Cholesterol HP; Nippon Seika Co., Ltd.) was used. As the PEG lipid, monostearyl PEG (product name: Polyethylene Glycol Monostearate (4E.O.), FUJIFILM Wako Pure Chemical Corporation) was used.
5 mg of PTEN ASO was dissolved in 1 mL of sterile water and diluted with a 10 mmol/L acetate buffer having a pH of 4 such that the nucleic acid concentration was 54.6 μmol/L, to obtain a water phase. Then the water phase and the oil phase were mixed together with a micromixer (see JP5288254B) using a syringe pump such that the volume ratio of water phase:oil phase was 3:1, and the mixed solution was two-fold diluted with a phosphate buffered physiological saline (PBS), thereby obtaining a dispersion of nucleic acid lipid particles.
30 μL of 3 mol/L aqueous sodium acetate solution and 9 μL of glycogen were added to 60 μL of the lipid particles retaining nucleic acids, and then 1.5 mL of ethanol was added thereto, so that only the nucleic acids were precipitated while the lipid was dissolved. Then, the supernatant was removed by centrifugation. The precipitates were air-dried for 15 minutes or longer, then water was added thereto to redissolve the precipitates, and the concentration thereof was measured using Nanodrop ND1000 (Thermo Fisher Scientific), thereby quantifying the total nucleic acid concentration.
The mRNA concentration was quantified using a Quant-iT RiboGreen RNA Assay Kit (Thermo Fisher Scientific) according to the protocol. First, a 20×TE buffer included in the above-described kit was diluted with water, thereby obtaining a 1×TE buffer. TE represents Tris/EDTA (ethylenediaminetetraacetic acid). In order to quantify only the nucleic acid in the outer water phase, the dispersion liquid of lipid particles retaining nucleic acids was 10,000-fold diluted with the 1×TE buffer.
100 μL of the 10,000-fold diluted dispersion liquid of lipid particles was put into a 96-well plate, then 100 μL of a RiboGreen reagent (reagent included in the Quanti-iT Ribogreen RNA Assay Kit described above) 2,000-fold diluted with the 1×TE buffer was added to a sample, and fluorescence (excitation wavelength: 485 nm, fluorescence wavelength: 535 nm) was measured using a plate reader Infinite F200 (TECAN), thereby quantifying the nucleic acid concentration in the outer water phase.
By using the quantification results of the total nucleic acid concentration and the nucleic acid concentration in the outer water phase that were obtained through the above steps, the nucleic acid encapsulation rate of the nucleic acid lipid particles was calculated according to the following Equation.
Nucleic acid encapsulation rate (%)=(total nucleic acid concentration—nucleic acid concentration in outer water phase)/total nucleic acid concentration×100

Data set [2] can be described thus: Particle size of FLuc mRNA-encapsulating lipid particles. The format is physicochemical. Here is the method: The compounds described in Table 2, the neutral lipid, cholesterol (product name: Cholesterol HP; NTPPON FINE CHEMICAL CO., LTD.), and 1,2-dimyristoyl-rac-glycero-3-(methylpolyoxyethylene 2000) (hereinafter, called DMG-PEG2000) were dissolved in ethanol at a molar ratio in Table 2 such that the total lipid concentration became 20 mmol/L, thereby obtaining an oil phase.
As the neutral lipid, 1,2-distearoyl-sn-glycero-3-phosphocholine (product name: COATSOME® MC-8080; NOF corporation) was used in a case of Comparative Example 1, and L-α-dioleoylphosphatidylethanolamine (product name: COATSOME® MC-8181; NOF corporation) was used in a case other than Comparative Example 1.
FLuc mRNA (product name: CleanCap FLuc mRNA (5 moU); TriLink) was diluted with 50 mmol/L citrate buffer having a pH 4 such that the weight ratio of total lipid concentration to mRNA concentration is about 19:1 to 64:1, obtaining a water phase. Then, the water phase and the oil phase were mixed together using NanoAssemblr (Precision NanoSystems) such that the volume ratio of water phase:oil phase was 3:1, and the mixed solution was 1.5-fold diluted with phosphate buffered saline (PBS), thereby obtaining a dispersion liquid of mRNA lipid particles. The dispersion liquid was dialyzed with a 10% aqueous sucrose solution using a dialysis cassette (Slide-A-Lyzer G2, MWCO: 10 kD, Thermo Fisher Scientific) to remove ethanol, thereby obtaining FLuc mRNA-encapsulating lipid particles.
The particle size of the mRNA-encapsulating lipid particles was measured by 10-fold diluting the dispersion liquid of lipid particle with phosphate buffered saline (PBS) using Zeta-potential & Particle size Analyzer ELS-Z2 (Otsuka Electronics Co., Ltd.).

Where [3] appears, read: aminolipid 45 / DOPE 10 / cholesterol 43.5 / DMG-PEG2000 1.5 mol %, lipid/nucleic acid 32 wt/wt.

As for `CCCCCCC(CCCC)COC(=O)CCCC(CCCCCC)OC(=O)OCCN(CCOC(=O)OC(CCCCCC)CCCC(=O)OCC(CCCC)CCCCCC)CCN(CC)CC` (stereo not shown) [Example 8, Bis(2-butyloctyl) 11-(2-(diethylamino)ethyl)-5,17-dihexyl-7,15-dioxo-6,8,14,16-tetraoxa-11-azahenicosanedioate], the “Nucleic acid encapsulation rate” value in data set [1] is 93%.
`CCCCCCC(CCCC(=O)OCC(CCCCC)CCCCC)OC(=O)OCCN(CCCN(CC)CC)CCOC(=O)OC(CCCCCC)CCCC(=O)OCC(CCCCC)CCCCC` (stereo not shown) [Example 13, Bis(2-pentylheptyl) 11-(3-(diethylamino)propyl)-5,17-dihexyl-7,15-dioxo-6,8,14,16-tetraoxa-11-azahenicosanedio ate] registered a Particle size in data set [2] (setting [3]) of 83.4 nm. For the same molecule, in data set [1], the “Nucleic acid encapsulation rate” value is 97%.
The like results for `CCCCCC(CCCCC)COC(=O)CCCC(CCC)OC(=O)OCCN(CCOC(=O)OC(CCC)CCCC(=O)OCC(CCCCC)CCCCC)CCN(CC)CC` (stereo not shown) [Example 21, Bis(2-pentylheptyl) 11-(2-(diethylamino)ethyl)-7,15-dioxo-5,17-dipropyl-6,8,14,16-tetraoxa-11-azahenicosanedioate] were, in that order, 100.9 nm and 96%.
Take `CCCCCCCOC(=O)CCCC(CCCC(=O)OCCCCCCC)OC(=O)OCCN(CCOC(=O)OC(CCCC(=O)OCCCCCCC)CCCC(=O)OCCCCCCC)CCN(CC)CC` [Example 29, diheptyl 11-(2-(diethylamino)ethyl)-5,17-bis(4-(heptyloxy)-4-oxobutyl)-7,15-dioxo-6,8,14,16-tetraoxa-11-azahenicosanedioate]: the Particle size turned out to be 104.8 nm in data set [2] (aminolipid 40 / DOPE 10 / cholesterol 48.5 / DMG-PEG2000 1.5 mol %, lipid/nucleic acid 64 wt/wt); 129 nm in data set [2] (setting [3]); 95.1 nm in data set [2] (aminolipid 50 / DOPE 10 / cholesterol 38.5 / DMG-PEG2000 1.5 mol %, lipid/nucleic acid 64 wt/wt). Also, in data set [1], the “Nucleic acid encapsulation rate” value is reported as 92%.
For the molecule `CCCCCCCOC(=O)CCCC(CCCC(=O)OCCCCCCC)OC(=O)OCCN(CCOC(=O)OC(CCCC(=O)OCCCCCC)CCCC(=O)OCCCCCC)CCN(CC)CC` [Example 37, 1-Heptyl 21-hexyl 11-(2-(diethylamino)ethyl)-5-(4-(heptyloxy)-4-oxobutyl)-17-(4-(hexyloxy)-4-oxobutyl)-7,15-d ioxo-6,8,14,16-tetraoxa-11-azahenicosanedioate], the “Nucleic acid encapsulation rate” value in data set [1] stood at 92%.
